In patent US11065292B2, “Feijoa fruit extract” (CALLAGHAN INNOVATION, priority 2012, dated 2021):

Legend:
[1] = tested on: collagen-induced arthritis (CIA) mice; assay: Collagen-induced arthritis mice: clinical score, treadmill, histology, radiology; format: in vivo
splenocytes of CIA mice = assay: Cytokine ELISA on splenocytes of CIA mice; format: in vivo; conditions: mean ± SD, 5 mice
Method: The production of IL-2, IL-4, IL-6, and IFN-γ from mitogen-stimulated splenocytes was determined as previously described (Chouaib, S.; Welte, K.; Mertelsman, R.; Dupont, B.; J. Immunol., 1985, 135, 1172-1179). Spleens were gently teased with forceps in the culture medium producing a suspension of spleen cells (CM, RPMI 1640 containing 10% fetal bovine serum, 2 mM L-glutamine, 1×10^5 units/L of penicillin and streptomycin). The red blood cells were lysed with 3 mL of lysing buffer (0.16 mol/L ammonia chloride Tris buffer, pH 7.2) at 37° C. for 5 minutes. The cells were then washed with CM twice. The cell concentrations were counted and adjusted to 2×10^6 cells/mL. Splenocytes ([…]) were cultured in triplicate on 96-well flat-bottom culture plates. Splenocytes (0.1 mL/well) were stimulated with ConA (1×10^−2 g/L, 0.1 mL/well) to induce IL-2, IL-4 and IFN-γ production. In other plates, splenocytes were cultured with lipopolysaccharide (1×10^−6 g/L) to induce IL-6 production. These plates were incubated at 37° C., 5% CO2; the culture time for IL-2, IL-4 and IL-6 is 24 hours (or 72 hours for IFN-γ). After incubation, supernatants were collected and stored at −70° C. The cytokines were determined by sandwich ELISA as previously described using a commercial kit.
To establish whether the protective effect of the feijoa fruit extract was related to the anti-inflammatory response observed in the CIA mice, pro-inflammatory cytokines (TNF-α, IL-2 and INF-γ) were investigated using the ELISA assay described in Example 3 (Table 9). It is well known that such cytokines play crucial roles in joint destruction by damaging the synovial cells within the joint. Consequently, a reduction in synovial cells within the joint results in an increase in friction, which in turn, results in inflammation and the potential development of arthritis.

[2] = day 56-79, diet with extract (1.8 mg/day) or 10 mg/kg methotrexate, mean ± SD, 5 mice

Compound: CN(Cc1cnc2nc(N)nc(N)c2n1)c1ccc(C(=O)N[C@@H](CCC(=O)O)C(=O)O)cc1 [Methotrexate, methotrexate]
- Clinical Score (paw swelling) ([1]; day 56-79, diet with extract (1.8 mg/day) or 10 mg/kg methotrexate, 5 mice): 10.5 ± 0.7
- Foot pressure (treadmill) [1, 2]: 141.23 ± 5.28
- Running Speed (treadmill) [1, 2]: 121.36 ± 1.69 mm/s
- Histological evaluation of joint sections (H&E) ([1]; end of trial, FIGS. 2, 3): relatively normal joint structures with little soft tissue swelling
- IFN-γ level by splenocytes (splenocytes of CIA mice): 182 ± 21 pg/mL
- IL-2 level by splenocytes (splenocytes of CIA mice): 104 ± 10 pg/mL
- TNF-α level by splenocytes (splenocytes of CIA mice): 255 ± 15 pg/mL
